Laboratory results from PubChem BioAssay (NCI).
Values joined by “and” are separate entries in the source; they are usually repeats but may differ in a detail not shown here. Equal values may be shown once.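 Method: 48-hour compound exposure of cells in 96-well plates, five concentrations, linear interpolation of endpoints. At the GI50, growth is halved. TGI is the concentration that stops growth completely.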

What was measured:
Assay in all cases: NCI anticancer screen, dose series, 48 h
EKVX NSCLC = test system: EKVX NSCLC
SW-620 colon = test system: SW-620 colon
SK-MEL-28 melanoma = test system: SK-MEL-28 melanoma
SNB-19 CNS = test system: SNB-19 CNS
HT29 colon = test system: HT29 colon
SF-268 CNS = test system: SF-268 CNS
OVCAR-3 ovarian = test system: OVCAR-3 ovarian
NCI-H460 lung = test system: NCI-H460 lung
K-562 leukemia = test system: K-562 leukemia
MDA-MB-231 breast = test system: MDA-MB-231 breast

## CC(=O)O[C@H]1CC[C@@]2(C)C(=CC[C@H]3C(CC#N)[C@@](C)(C#N)CCC32)C1 (stereo partly specified)
EKVX NSCLC
  TGI: > 100 µM
SW-620 colon
  TGI: > 100 µM
SK-MEL-28 melanoma
  TGI: > 100 µM
SNB-19 CNS
  TGI: > 100 µM
HT29 colon
  TGI: > 100 µM
SF-268 CNS
  TGI: > 100 µM
OVCAR-3 ovarian
  TGI: > 100 µM
NCI-H460 lung
  TGI: > 100 µM
K-562 leukemia
  TGI: > 100 µM

## CC(=O)N(N=O)c1ccc(N(N=O)C(C)=O)cc1
SW-620 colon
  TGI: > 100 µM
SK-MEL-28 melanoma
  TGI: > 100 µM
SNB-19 CNS
  TGI: > 100 µM
HT29 colon
  TGI: > 100 µM
SF-268 CNS
  TGI: > 100 µM
OVCAR-3 ovarian
  TGI: > 100 µM
NCI-H460 lung
  TGI: > 100 µM
K-562 leukemia
  TGI: > 100 µM

## C/C(=N\NC(=O)c1ccccc1O)c1c(O)cc(C)oc1=O
EKVX NSCLC
  TGI: 88.6 µM
SW-620 colon
  TGI: > 100 µM
SK-MEL-28 melanoma
  TGI: > 100 µM
SNB-19 CNS
  TGI: > 100 µM
HT29 colon
  TGI: > 100 µM
SF-268 CNS
  TGI: > 100 µM
OVCAR-3 ovarian
  TGI: > 100 µM
NCI-H460 lung
  TGI: > 100 µM
K-562 leukemia
  TGI: > 100 µM

## Cc1ccc(NC(=O)C(=O)C2C(=O)NC(=O)NC2=O)c(C)c1
EKVX NSCLC
  TGI: > 100 µM
SW-620 colon
  TGI: > 100 µM
SK-MEL-28 melanoma
  TGI: > 100 µM
SNB-19 CNS
  TGI: > 100 µM
HT29 colon
  TGI: > 100 µM
SF-268 CNS
  TGI: > 100 µM
OVCAR-3 ovarian
  TGI: > 100 µM
NCI-H460 lung
  TGI: > 100 µM
K-562 leukemia
  TGI: > 100 µM

## CC(=O)OC1CC2C(C)(C)C(=O)C=C[C@]2(C)C2CCC3(C)C(c4ccoc4)C(=O)C4OC43[C@]12C (stereo partly specified)
EKVX NSCLC
  TGI: > 100 µM
SW-620 colon
  TGI: 42 µM
SK-MEL-28 melanoma
  TGI: 32 µM
SNB-19 CNS
  TGI: 80.7 µM
HT29 colon
  TGI: 32.1 µM
SF-268 CNS
  TGI: 53.9 µM
OVCAR-3 ovarian
  TGI: 34.4 µM
NCI-H460 lung
  TGI: 33.3 µM
K-562 leukemia
  TGI: 32.6 µM

## C=C1C2CC(OC(C)=O)C3(C)C(c4ccoc4)OC(=O)[C@@H](O)[C@]13OC1C[C@H](OC(C)=O)C(C)(C)[C@H](C(O)C(=O)OC)[C@]12C (stereo partly specified)
EKVX NSCLC
  TGI: > 100 µM
SW-620 colon
  TGI: > 100 µM
SK-MEL-28 melanoma
  TGI: > 100 µM
SNB-19 CNS
  TGI: > 100 µM
HT29 colon
  TGI: > 100 µM
OVCAR-3 ovarian
  TGI: > 100 µM
NCI-H460 lung
  TGI: > 100 µM
K-562 leukemia
  TGI: > 100 µM

## Nc1ccc(C(=O)CC2(O)C(=O)Nc3ccccc32)cc1 (stereo unspecified)
EKVX NSCLC
  TGI: > 100 µM
SW-620 colon
  TGI: > 100 µM
SK-MEL-28 melanoma
  TGI: > 100 µM
SNB-19 CNS
  TGI: > 100 µM
HT29 colon
  TGI: > 100 µM
SF-268 CNS
  TGI: > 100 µM
OVCAR-3 ovarian
  TGI: > 100 µM
NCI-H460 lung
  TGI: > 100 µM
K-562 leukemia
  TGI: > 100 µM

## COc1cc(/C=C/C(=O)c2ccccc2O)ccc1OCCCOc1cc2c(cc1OC)C(=O)N1CCC[C@H]1C=N2
EKVX NSCLC
  GI50: 0.215 µM
  TGI: 0.955 µM
MDA-MB-231 breast
  GI50: 56.4 nM
  TGI: 335 nM
SK-MEL-28 melanoma
  GI50: 47.6 nM
  TGI: 0.109 µM
SNB-19 CNS
  GI50: 193 nM
HT29 colon
  GI50: 34.4 nM
  TGI: > 100 µM
SF-268 CNS
  GI50: 0.0247 µM
  TGI: 0.064 µM
OVCAR-3 ovarian
  GI50: 0.0289 µM
  TGI: 0.124 µM
NCI-H460 lung
  GI50: 0.0511 µM
  TGI: 11.1 µM
K-562 leukemia
  GI50: 0.0297 µM
  TGI: 18.2 µM

## COc1cccc(/C=C2\N=C(Cl)OC2=O)c1O
EKVX NSCLC
  TGI: > 100 µM
SW-620 colon
  TGI: > 100 µM
SK-MEL-28 melanoma
  TGI: > 100 µM
SNB-19 CNS
  TGI: > 100 µM
HT29 colon
  TGI: > 100 µM
SF-268 CNS
  TGI: > 100 µM
OVCAR-3 ovarian
  TGI: > 100 µM
NCI-H460 lung
  TGI: > 100 µM
K-562 leukemia
  TGI: > 100 µM

## CC1=NC(C)=C(/C(C)=N/NC(=O)c2ccccc2O)C(C)/C1=C(/C)NNC(=O)c1ccccc1O (stereo unspecified)
EKVX NSCLC
  TGI: 48.4 µM
SW-620 colon
  TGI: > 100 µM
SK-MEL-28 melanoma
  TGI: > 100 µM
SNB-19 CNS
  TGI: > 100 µM
HT29 colon
  TGI: > 100 µM
SF-268 CNS
  TGI: > 100 µM
OVCAR-3 ovarian
  TGI: 66.7 µM
NCI-H460 lung
  TGI: 66.6 µM
K-562 leukemia
  TGI: 35.3 µM

## CN1C(c2ccccc2)CC(=NO)CC1c1ccccc1 (stereo unspecified)
EKVX NSCLC
  TGI: > 100 µM
SW-620 colon
  GI50: 43 µM
  TGI: > 100 µM
SK-MEL-28 melanoma
  TGI: > 100 µM
SNB-19 CNS
  TGI: > 100 µM
HT29 colon
  GI50: 34800 nM
  TGI: > 100 µM
SF-268 CNS
  TGI: > 100 µM
OVCAR-3 ovarian
  GI50: 24.9 µM
  TGI: > 100 µM and 77.3 µM
NCI-H460 lung
  GI50: 41.2 µM
  TGI: > 100 µM
K-562 leukemia
  GI50: 32.6 µM
  TGI: > 100 µM

## CCOc1ccc(Nc2ccnc3cc(Cl)ccc23)cc1
MDA-MB-231 breast
  GI50: > 100000 nM
  TGI: > 100000 nM
SW-620 colon
  GI50: > 100 µM
  TGI: > 100 µM
SK-MEL-28 melanoma
  GI50: > 100000 nM
  TGI: > 100 µM
SNB-19 CNS
  GI50: > 100000 nM
  TGI: > 100 µM
HT29 colon
  GI50: 3880 nM
  TGI: > 100 µM
SF-268 CNS
  GI50: 57 µM
  TGI: > 100 µM
OVCAR-3 ovarian
  GI50: > 100 µM
  TGI: > 100 µM
NCI-H460 lung
  GI50: 29.1 µM
  TGI: > 100 µM
K-562 leukemia
  GI50: 32.3 µM
  TGI: > 100 µM

## COc1ccc(OC)c(-c2cc(-c3ccc(Cl)cc3)nn2-c2ccccc2)c1
EKVX NSCLC
  GI50: 82.8 µM
  TGI: > 100 µM
MDA-MB-231 breast
  GI50: 17800 nM
  TGI: 80000 nM
SW-620 colon
  GI50: 17 µM
  TGI: 78.4 µM
SF-268 CNS
  GI50: 18.2 µM
  TGI: 57.8 µM
OVCAR-3 ovarian
  GI50: 23.7 µM
  TGI: 46.7 µM
NCI-H460 lung
  GI50: 33.8 µM
  TGI: > 100 µM
K-562 leukemia
  GI50: 5.89 µM
  TGI: 42.4 µM

## C=CCC1(CN(C)C)CC/C(=C\c2cc(OC)c(OC)c(OC)c2)C1=O (stereo unspecified)
EKVX NSCLC
  TGI: 61.4 µM
SW-620 colon
  TGI: 33.6 µM
SK-MEL-28 melanoma
  TGI: > 100 µM
SNB-19 CNS
  TGI: > 100 µM
HT29 colon
  TGI: 40.6 µM
SF-268 CNS
  TGI: 51.6 µM
OVCAR-3 ovarian
  TGI: 69.2 µM
NCI-H460 lung
  TGI: 36.9 µM
K-562 leukemia
  TGI: 54.1 µM

## CON1C(=O)C2(CCCCC2)C(=O)C12C=CC(C)CC2 (stereo unspecified)
EKVX NSCLC
  TGI: > 100 µM
SW-620 colon
  TGI: > 100 µM
SK-MEL-28 melanoma
  TGI: > 100 µM
SNB-19 CNS
  TGI: > 100 µM
HT29 colon
  TGI: > 100 µM
SF-268 CNS
  TGI: > 100 µM
OVCAR-3 ovarian
  TGI: > 100 µM
NCI-H460 lung
  TGI: > 100 µM
K-562 leukemia
  TGI: > 100 µM

## CSc1nc2c(nc(N)n2C2OC(CO)C(O)C(O)C2O)c(=O)[nH]1 (stereo unspecified)
EKVX NSCLC
  TGI: > 100 µM
SW-620 colon
  TGI: > 100 µM
SK-MEL-28 melanoma
  TGI: > 100 µM
SNB-19 CNS
  TGI: > 100 µM
HT29 colon
  TGI: > 100 µM
SF-268 CNS
  TGI: > 100 µM
OVCAR-3 ovarian
  TGI: > 100 µM
NCI-H460 lung
  TGI: > 100 µM
K-562 leukemia
  TGI: > 100 µM

## CCCCSC1CCSc2c1ccc1ccccc21 (stereo unspecified)
SK-MEL-28 melanoma
  TGI: > 100 µM
SNB-19 CNS
  TGI: > 100 µM
HT29 colon
  TGI: > 100 µM
K-562 leukemia
  TGI: > 100 µM

## NCCCNCc1c2ccccc2c(CNCCCN)c2ccccc12
EKVX NSCLC
  TGI: 43.5 µM
SW-620 colon
  TGI: 26 µM
SNB-19 CNS
  TGI: > 100 µM
HT29 colon
  TGI: 94.3 µM
SF-268 CNS
  TGI: 20.2 µM
OVCAR-3 ovarian
  TGI: 98.5 µM
NCI-H460 lung
  TGI: 32.6 µM
K-562 leukemia
  TGI: 32.5 µM

## O=C(O)C(Cc1ccccc1)N=Cc1nc(-c2ccccc2)oc1O (stereo unspecified)
EKVX NSCLC
  TGI: > 100 µM
SW-620 colon
  TGI: > 100 µM
SK-MEL-28 melanoma
  TGI: > 100 µM
SNB-19 CNS
  TGI: > 100 µM
HT29 colon
  TGI: > 100 µM
SF-268 CNS
  TGI: > 100 µM
OVCAR-3 ovarian
  TGI: > 100 µM
NCI-H460 lung
  TGI: > 100 µM
K-562 leukemia
  TGI: > 100 µM

## Cc1cc(C)c([I+]c2c(C)cc(C)cc2C)c(C)c1
MDA-MB-231 breast
  GI50: 371 nM
  TGI: 1380 nM
SK-MEL-28 melanoma
  GI50: 774 nM
  TGI: 2.08 µM
SNB-19 CNS
  GI50: 444 nM
  TGI: 1.76 µM
HT29 colon
  GI50: 279 nM
  TGI: 1.29 µM
SF-268 CNS
  GI50: 0.615 µM
  TGI: 2.23 µM
OVCAR-3 ovarian
  GI50: 0.379 µM
  TGI: 1.62 µM
NCI-H460 lung
  GI50: 0.846 µM
  TGI: 2.3 µM
K-562 leukemia
  GI50: 0.319 µM
  TGI: 1.43 µM
